# According to patent US10155750B2, “Amidoethyl azole orexin receptor antagonists” (Merck Sharp & Dohme Corp., priority 2014, dated 2018):
# Key:
# [1] = target: hOX1R (orexin-1 receptor) (Homo sapiens, UniProt O43613); assay: FLIPR Ca2+ flux assay, hOX1R; assay type: cell-based; conditions: CHO cells expressing the receptor; agonist 70 pM Ala-6,12 human orexin-A
# [2] = target: human orexin-2 receptor (Homo sapiens (Human), UniProt O43614); assay: FLIPR Ca2+ flux assay, hOX2R; assay type: cell-based; conditions: CHO cells expressing the receptor; agonist 70 pM Ala-6,12 human orexin-A
# Sequence of human orexin-2 receptor (O43614 whole entry): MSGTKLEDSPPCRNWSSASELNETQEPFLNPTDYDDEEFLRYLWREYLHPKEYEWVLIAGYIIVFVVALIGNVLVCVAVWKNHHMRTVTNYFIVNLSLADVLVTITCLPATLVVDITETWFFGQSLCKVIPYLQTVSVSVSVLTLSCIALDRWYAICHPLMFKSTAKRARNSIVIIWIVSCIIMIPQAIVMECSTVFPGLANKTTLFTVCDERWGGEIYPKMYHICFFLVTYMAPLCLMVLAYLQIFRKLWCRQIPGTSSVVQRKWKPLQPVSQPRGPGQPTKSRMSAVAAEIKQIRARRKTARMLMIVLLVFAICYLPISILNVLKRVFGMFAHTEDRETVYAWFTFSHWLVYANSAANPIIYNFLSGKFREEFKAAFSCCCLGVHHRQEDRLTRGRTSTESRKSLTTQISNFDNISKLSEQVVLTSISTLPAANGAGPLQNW
# Description: The utility of the compounds in accordance with the present invention as orexin receptor OX1R and/or OX2R antagonists may be readily determined without undue experimentation by methodology well known in the art, including the “FLIPR Ca^2+ Flux Assay” (Okumura et al., Biochem. Biophys. Res. Comm. 280:976-981, 2001). In a typical experiment the OX1 and OX2 receptor antagonistic activity of the compounds of the present invention was determined in accordance with the following experimental method. For intracellular calcium measurements, Chinese hamster ovary (CHO) cells expressing the rat orexin-1 receptor or the human orexin-2 receptor, are grown in Iscove's modified DMEM containing 2 mM L-glutamine, […], 1% hypoxanthine-thymidine supplement, 100 U/ml penicillin, 100 μg/ml streptomycin and 10% heat-inactivated fetal calf serum (FCS). The cells are seeded at 20,000 cells/well into Becton-Dickinson black 384-well clear bottom sterile plates coated with poly-D-lysine. All reagents were from GIBCO-Invitrogen Corp. The seeded plates are incubated overnight at 37° C. and 5% CO2. Ala-6,12 human orexin-A as the agonist is prepared as a 1 mM stock solution in 1% bovine serum albumin (BSA) and diluted in assay buffer (HBSS containing 20 mM HEPES, 0.1% BSA and 2.5 mM probenecid, pH7.4) for use in the assay at a final concentration of 70 pM. Test compounds are prepared as 10 mM stock solution in DMSO, then diluted in 384-well plates, first in DMSO, then assay buffer. On the day of the assay, cells are washed 3 times with 100 μl assay buffer and then incubated for 60 min (37° C., 5% CO2) in 60 μl assay buffer containing 1 μM Fluo-4AM ester, 0.02% pluronic acid, and 1% BSA. The dye loading solution is then aspirated and cells are washed 3 times with 100 μl assay buffer. 30 μl of that same buffer is left in each well. Within the Fluorescent Imaging Plate Reader (FLIPR, Molecular Devices), test compounds are added to the plate in a volume of 25 μl, incubated for 5 min and finally 25 μl of agonist is added. Fluorescence is measured for each well at 1 second intervals for 5 minutes and the height of each fluorescence peak is compared to the height of the fluorescence peak induced by 70 pM Ala-6,12 orexin-A with buffer in place of antagonist. For each antagonist, IC50 value (the concentration of compound needed to inhibit 50% of the agonist response) is determined. Alternatively, compound potency can be assessed by a radioligand binding assay (described in Bergman et. al. Bioorg. Med. Chem. Lett. 2008, 18, 1425-1430) in which the inhibition constant (Ki) is determined in membranes prepared from CHO cells expressing either the OX1 or OX2 receptor. The intrinsic orexin receptor antagonist activity of a compound which may be used in the present invention may be determined by these assays.
IC50 [1] [nM],IC50 [2] [nM],SMILES
> 10000,44,"CCN(CCn1nc(C)c(C(C)(C)O)n1)C(=O)c1cccnc1OCC(F)F [Example 24, 2-(2,2-difluoroethoxy)-N-ethyl-N-(2-(4-(2-hydroxypropan-2-yl)-5-methyl-2H-1,2,3-triazol-2-yl)ethyl)nicotinamide]"
> 10000,37,"CCN(CCn1nc(C)c(C(C)(C)O)n1)C(=O)c1ccccc1CC(F)(F)F [Example 34, N-ethyl-N-(2-(4-(2-hydroxypropan-2-yl)-5-methyl-2H-1,2,3-triazol-2-yl)ethyl)-2-(2,2,2-trifluoroethyl) benzamide]"
1480,10,"CCN(CCn1nc(C)c(C(C)(C)O)n1)C(=O)c1ccccc1C1CC1(F)F (centres unmarked) [Example 38, 2-(2,2-difluorocyclopropyl)-N-ethyl-N-(2-(4-(2-hydroxypropan-2-yl)-5-methyl-2H-1,2,3-triazol-2-yl)ethyl)benzamide]"
1170,13,"CCN(CCn1nc(C)c(C(C)(C)O)n1)C(=O)c1ccccc1C1CCC1 [Example 40, 2-cyclobutyl-N-ethyl-N-(2-(4-(2-hydroxypropan-2-yl)-5-methyl-2H-1,2,3-triazol-2-yl)ethyl)benzamide]"
> 10000,270,"CCN(CCn1nc(C)c(C(C)(C)O)n1)C(=O)c1cccnc1CC(F)(F)F [Example 36, N-ethyl-N-(2-(4-(2-hydroxypropan-2-yl)-5-methyl-2H-1,2,3-triazol-2-yl)ethyl)-2-(2,2,2-trifluoroethyl) nicotinamide]"
2860,12,"CCN(CCn1nc(C)c(C(C)(C)O)n1)C(=O)c1ccccc1-n1nccn1 [Example 20, N-Ethyl-N-(2-(4-(2-hydroxypropan-2-yl)-5-methyl-2H-1,2,3-triazol-2-yl)ethyl)-2-(2H-1,2,3-triazol-2-yl)benzamide]"
> 10000,180,"CCN(CCn1nc(C)c(C(C)(C)O)n1)C(=O)c1ncccc1-n1nccn1 [Example 43, N-ethyl-N-(2-(4-(2-hydroxypropan-2-yl)-5-methyl-2H-1,2,3-triazol-2-yl)ethyl)-3-(2H-1,2,3-triazol-2-yl)picolinamide]"
> 10000,19,CCN(CCn1nc(C)c(C(C)(C)O)n1)C(=O)c1ccccc1OC(F)(F)F [Example 26]
7520,13,"CCN(CCn1nc(C)c(C(C)(C)O)n1)C(=O)c1cccnc1-n1cccn1 [Example 48, N-ethyl-N-(2-(4-(2-hydroxypropan-2-yl)-5-methyl-2H-1,2,3-triazol-2-yl)ethyl)-2-(1H-pyrazol-1-yl)nicotinamide]"
> 10000,10,"CCN(CCn1nc(C)c(C(C)(C)O)n1)C(=O)c1ccccc1CC(F)F [Example 37, 2-(2,2-difluoroethyl)-N-ethyl-N-(2-(4-(2-hydroxypropan-2-yl)-5-methyl-2H-1,2,3-triazol-2-yl)ethyl)benzamide]"
> 10000,247,"CCN(CCn1ncc(C(C)(C)O)n1)C(=O)c1ccccc1OC(F)(F)F [Example 12, N-ethyl-N-(2-(4-(2-hydroxypropan-2-yl)-2H-1,2,3-triazol-2-yl)ethyl)-2-(trifluoromethoxy)benzamide]"
> 10000,35,"CCN(CCn1cc(C(C)(C)O)cn1)C(=O)c1ccccc1-n1nccn1 [Example 49, N-Ethyl-N-{2-[4-(1-hydroxy-1-methylethyl)-1H-pyrazol-1-yl]ethyl}-2-(2H-1,2,3-triazol-2-yl)benzamide]"
> 10000,35,"CCN(CCn1nc(C)c(C(C)(C)O)n1)C(=O)c1ccccc1OCC(F)F [Example 35, 2-(2,2-difluoroethoxy)-N-ethyl-N-(2-(4-(2-hydroxypropan-2-yl)-5-methyl-2H-1,2,3-triazol-2-yl)ethyl)benzamide]"
> 10000,21,"CCN(CCn1nc(C)c(C(C)(C)O)n1)C(=O)c1cccnc1OCC(F)(F)F [Example 21, N-Ethyl-N-(2-(4-(2-hydroxypropan-2-yl)-5-methyl-2H-1,2,3-triazol-2-yl)ethyl)-2-(2,2,2-trifluoroethoxy)nicotinamide]"
1560,13,"CCN(CCn1nc(C)c(C(C)(C)O)n1)C(=O)c1ccccc1C1CC1 [Example 28, 2-cyclopropyl-N-ethyl-N-(2-(4-(2-hydroxypropan-2-yl)-5-methyl-2H-1,2,3-triazol-2-yl)ethyl)benzamide]"
2100,15,"CCN(CCn1nc(C)c(C(C)(C)O)n1)C(=O)c1ccccc1N1CCCC1 [Example 41, N-ethyl-N-(2-(4-(2-hydroxypropan-2-yl)-5-methyl-2H-1,2,3-triazol-2-yl)ethyl)-2-(pyrrolidin-1-yl)benzamide]"
> 10000,27,"CCOc1ccccc1C(=O)N(CC)CCn1nc(C)c(C(C)(C)O)n1 [Example 27, 2-ethoxy-N-ethyl-N-(2-(4-(2-hydroxypropan-2-yl)-5-methyl-2H-1,2,3-triazol-2-yl)ethyl)benzamide]"
> 10000,61,"CCN(CCn1nc(C)c(C(C)(C)O)n1)C(=O)c1cccnc1OC(C)C [Example 22, N-ethyl-N-(2-(4-(2-hydroxypropan-2-yl)-5-methyl-2H-1,2,3-triazol-2-yl)ethyl)-2-isopropoxynicotinamide]"
2210,32,"CCCc1ccccc1C(=O)N(CC)CCn1nc(C)c(C(C)(C)O)n1 [Example 32, N-ethyl-N-(2-(4-(2-hydroxypropan-2-yl)-5-methyl-2H-1,2,3-triazol-2-yl)ethyl)-2-propylbenzamide]"
> 10000,23,"CCN(CCn1ccc(C(C)(C)O)n1)C(=O)c1ccccc1-n1nccn1 [Example 50, N-Ethyl-N-{2-[3-(1-hydroxy-1-methylethyl)-1H-pyrazol-1-yl]ethyl}-2-(2H-1,2,3-triazol-2-yl)benzamide]"
> 10000,106,"CCN(CCn1nc(C)c(C(C)(C)O)n1)C(=O)c1ncccc1-c1ccccc1 [Example 44, N-ethyl-N-(2-(4-(2-hydroxypropan-2-yl)-5-methyl-2H-1,2,3-triazol-2-yl)ethyl)-3-phenylpicolinamide]"
> 10000,145,"CCN(CCn1ncc(C(C)(C)O)n1)C(=O)c1ccccc1OC(C)C [Example 18, N-ethyl-N-(2-(4-(2-hydroxypropan-2-yl)-2H-1,2,3-triazol-2-yl)ethyl)-2-isopropoxybenzamide]"
> 10000,52,"CCN(CCn1nc(C)c(C(C)(C)O)n1)C(=O)c1ccccc1OCC(F)(F)F [Example 33, N-ethyl-N-(2-(4-(2-hydroxypropan-2-yl)-5-methyl-2H-1,2,3-triazol-2-yl)ethyl)-2-(2,2,2-trifluoroethoxy) benzamide]"

SMILES,IC50 [1] [nM],IC50 [2] [nM]
"CCN(CCn1ncc(C(C)(C)O)n1)C(=O)c1ccccc1C1CC1 [Example 4, 2-Cyclopropyl-N-ethyl-N-(2-(4-(2-hydroxypropan-2-yl)-2H-1,2,3-triazol-2-yl)ethyl)benzamide]",> 10000,47
"CCN(CCn1ncc(C(C)(O)CC)n1)C(=O)c1ccccc1-n1nccn1 (centres unmarked) [Example 2, N-Ethyl-N-(2-(4-(2-hydroxybutan-2-yl)-2H-1,2,3-triazol-2-yl)ethyl)-2-(2H-1,2,3-triazol-2-yl)benzamide]",> 10000,65
